Like-named read-outs stand apart in the source and are kept apart here.
What was measured:
Cooperia curticei = Cooperia curticei (COOPCU) larval mortality assay; details: 120 h, after 5 days, read-out: activity (percentage of larval mortality); for mortality at 20 ppm: application rate 20 ppm
Description: (§1) Solvent: dimethyl sulfoxide
(§2) To produce a suitable preparation of active compound, 10 mg of active compound are dissolved in 0.5 ml solvent, and the concentrate is diluted with “Ringer's solution” to the desired concentration.
Approximately 40 nematode larvae (Cooperia curticei) are transferred into a test tube containing the compound solution.
After 5 days percentage of larval mortality is recorded. 100% efficacy means all larvae are killed; 0% efficacy means no larvae are killed.

Haemonchus contortus = Haemonchus contortus (HAEMCO) larval mortality assay; details: 120 h; for mortality at 20 ppm: application rate 20 ppm; for Emax at 0.8 ppm / Emax at 4 ppm / Emax at 20 ppm: comparative test, 5 dat, read-out: % Efficacy
Description: as §1, §2
Approximately 40 larvae of the red stomach worm (Haemonchus contortus) are transferred into a test tube containing compound solution.
After 5 days percentage of larval mortality are recorded. 100% efficacy means all larvae are killed, 0% efficacy means no larvae are killed.

[1] = system: Nippostrongylus brasiliensis; test: Nippostrongylus brasiliensis (NIPOBR) assay, acetylcholine esterase readout; details: 10 ppm (10 μg/ml), adult worms, read-out: activity (reduction of AChE compared to negative control)
Description: Adult Nippostrongylus brasiliensis were washed with saline buffer containing 100 U/ml penicillin, 0.1 mg/ml streptomycin and 2.5 μg/ml amphotericin B. Test compounds were dissolved in DMSO and worms were incubated in medium in a final concentration of 10 μg/ml (10 ppm). An aliquot of the medium was used to determine the acetylcholine esterase activity in comparison to a negative control. The principle of measuring acetylcholine esterase as readout for anthelmintic activity was described in Rapson et al (1986) and Rapson et al (1987).

Meloidogyne incognita = Meloidogyne incognita (MELGIN) gall formation assay; type: in vivo; details: 336 h, read-out: nematicidal activity (percentage of gall formation)
Description: Solvent: 125.0 parts by weight of acetone
To produce a suitable preparation of active compound, 1 part by weight of active compound is mixed with the stated amount of solvent, and the concentrate is diluted with water to the desired concentration.
Vessels are filled with sand, a solution of the active ingredient, a suspension containing eggs and larvae of the southern root-knot nematode (Meloidogyne incognita) and salad seeds. The salad seeds germinate and the seedlings grow. Galls develop in the roots.
After 14 days the nematicidal activity is determined on the basis of the percentage of gall formation. 100% means no galls were found and 0% means the number of galls found on the roots of the treated plants was equal to that in untreated control plants.

[2] = after 5 days, read-out: activity (percentage of larval mortality)
[3] = application rate 20 ppm, after 14 days, salad seedlings

Compound	mortality at 20 ppm (Cooperia curticei) [%]	mortality at 20 ppm (Haemonchus contortus; [2]) [%]	inhibition at 10 ppm [1] [%]	pest or weed control at 20 ppm (Meloidogyne incognita; [3]) [%]	also measured
O=C(NCCc1cccc(-c2ccc(OCC(F)(F)F)nc2)c1)c1ccccc1C(F)(F)F [Example 1-1]	80	80	≥ 60	–	–
O=C(NCCc1cccc(-c2ccc(Cl)nc2)c1)c1ccccc1C(F)(F)F [Example 1-9]	100	–	≥ 60	–	–
O=C(NCCc1ccc(-c2cncc(Cl)c2)cc1)c1cccnc1C(F)(F)F [Example 1-16]	100	80	–	90	–
O=C(NCCc1ccc(-c2ccc(C(F)(F)F)nc2)cc1)c1cccnc1C(F)(F)F [Example 1-19]	100	–	–	90	–
O=C(NCCc1ccc(-c2cncc(F)c2)cc1)c1cccnc1C(F)(F)F [Example 1-20]	100	80	–	90	–
Cn1cc(-c2ccc(CCNC(=O)c3cccnc3C(F)(F)F)cc2)cn1 [Example 1-24]	90	–	–	90	–
O=C(NCCc1ccc(-c2cccnc2)cc1Cl)c1ccccc1C(F)(F)F [Example 1-33]	100	100	≥ 60	–	–
O=C(NCCc1ccc(-c2cncc(F)c2)cc1Cl)c1ccccc1C(F)(F)F [Example 1-37]	100	100	≥ 60	–	pest or weed control at 20 ppm (Meloidogyne incognita): 90%; Emax at 0.8 ppm (Haemonchus contortus): 100%; Emax at 4 ppm (Haemonchus contortus): 100%; Emax at 20 ppm (Haemonchus contortus): 100%
O=C(NCCc1ccc(-c2ccccn2)cc1Cl)c1ccccc1C(F)(F)F [Example 1-39]	100	100	–	100	–
Cc1ncccc1-c1ccc(CCNC(=O)c2ccccc2C(F)(F)F)c(Cl)c1 [Example 1-42]	100	100	–	90	–
O=C(NCCc1ccc(-c2ccc(F)nc2)cc1Cl)c1ccccc1C(F)(F)F [Example 1-44]	100	100	≥ 60	–	pest or weed control at 20 ppm (Meloidogyne incognita): 90%; Emax at 0.8 ppm (Haemonchus contortus): 100%; Emax at 4 ppm (Haemonchus contortus): 100%; Emax at 20 ppm (Haemonchus contortus): 100%
O=C(NCCc1ccc(-c2cncc(Cl)c2)cc1Cl)c1ccccc1C(F)(F)F [Example 1-45, N-{2-[2-chloro-4-(5-chloropyridin-3-yl)phenyl]ethyl}-2-(trifluoromethyl)benzamide]	100	100	≥ 60	–	Emax at 0.8 ppm (Haemonchus contortus): 100%; Emax at 4 ppm (Haemonchus contortus): 100%; Emax at 20 ppm (Haemonchus contortus): 100%
Cn1cc(-c2ccc(CCNC(=O)c3ccccc3C(F)(F)F)c(Cl)c2)cn1 [Example 1-47]	100	100	–	100	Emax at 0.8 ppm (Haemonchus contortus): 80%; Emax at 4 ppm (Haemonchus contortus): 100%; Emax at 20 ppm (Haemonchus contortus): 100%
O=C(NCCc1ccc(-c2ccc(Cl)nc2Cl)cc1Cl)c1ccccc1C(F)(F)F [Example 1-49]	100	90	≥ 60	–	–
O=C(NCCc1ccc(-c2cncc(Cl)c2)cc1)c1ccccc1C(F)(F)F [Example 1-53]	100	100	≥ 60	–	–
O=C(NCCc1ccc(-c2ccc(Cl)nc2)cc1Cl)c1ccccc1C(F)(F)F [Example 1-66]	100	100	–	90	–
O=C(NCC(F)c1ccc(-c2cccnc2Cl)cc1Cl)c1ccccc1C(F)(F)F (centres unmarked) [Example 1-75]	100	100	≥ 60	–	–
O=C(NCC(F)c1ccc(-c2cccnc2Cl)cc1Cl)c1cccnc1C(F)(F)F (centres unmarked) [Example 1-80]	100	100	–	90	–
O=C(NCC(F)c1ccc(-c2ccnc(F)c2)cc1Cl)c1cccnc1C(F)(F)F (centres unmarked) [Example 1-81]	100	100	–	100	–
O=C(NCC(F)c1ccc(-c2ccc(Cl)nc2)cc1Cl)c1nccnc1C(F)(F)F (centres unmarked) [Example 1-85]	100	100	–	100	–
O=C(NCC(F)c1ccc(-c2ccc(Cl)nc2)cc1Cl)c1cccnc1C(F)(F)F (centres unmarked) [Example 1-86]	100	100	–	100	–

Compound	mortality at 20 ppm (Cooperia curticei) [%]	mortality at 20 ppm (Haemonchus contortus; [2]) [%]	inhibition at 10 ppm [1] [%]	pest or weed control at 20 ppm (Meloidogyne incognita; [3]) [%]	also measured
COc1ccc(-c2ccc(C(F)(F)CNC(=O)c3ccccc3C(F)(F)F)c(Cl)c2)cn1 [Example 1-90]	100	100	≥ 60	–	–
O=C(NCC(F)(F)c1ccc(-c2cc(Cl)nc(Cl)c2)cc1Cl)c1ccccc1C(F)(F)F [Example 1-92]	100	100	≥ 60	–	–
O=C(NCC(F)(F)c1ccc(-c2ccc(C(F)(F)F)nc2)cc1Cl)c1ccccc1C(F)(F)F [Example 1-94]	100	100	–	100	–
O=C(NCC(F)(F)c1ccc(-c2cncc(F)c2)cc1Cl)c1ccccc1C(F)(F)F [Example 1-96]	100	100	≥ 60	–	–
O=C(NCC(F)(F)c1ccc(-c2cncc(Cl)c2)cc1Cl)c1ccccc1C(F)(F)F [Example 1-97]	100	100	≥ 60	–	–
CC(F)(CNC(=O)c1cccnc1C(F)(F)F)c1ccc(-c2cncc(F)c2)cc1Cl (centres unmarked) [Example 1-98]	100	100	≥ 60	–	–
O=C(NCC(F)(F)c1ccc(-c2ccc(F)nc2)cc1Cl)c1cccnc1C(F)(F)F [Example 1-104]	–	90	–	100	mortality at 4 ppm (Cooperia curticei; application rate 4 ppm): 100%
O=C(NCC(F)(F)c1ccc(-c2cncc(Cl)c2)cc1F)c1ccccc1C(F)(F)F [Example 1-107]	100	100	≥ 60	–	–
O=C(NCC(F)(F)c1ccc(-c2cncc(F)c2)cc1F)c1ccccc1C(F)(F)F [Example 1-111]	100	100	≥ 60	–	–
O=C(NCC(F)(F)c1ccc(-c2cncc(Cl)c2)cc1C(F)(F)F)c1ccccc1C(F)(F)F [Example 1-120]	100	100	–	100	–
COc1cncc(-c2ccc(C(F)(F)CNC(=O)c3ccccc3C(F)(F)F)c(C(F)(F)F)c2)c1 [Example 1-121]	80	80	–	–	–
O=C(NCC(F)(F)c1ccc(-c2cncc(F)c2)cc1C(F)(F)F)c1ccccc1C(F)(F)F [Example 1-122]	100	100	–	–	–
O=C(NCC(F)(F)c1ccc(-c2ccc(C(F)(F)F)nc2)cc1C(F)(F)F)c1ccccc1C(F)(F)F [Example 1-124]	90	–	–	–	mortality at 4 ppm (Haemonchus contortus; application rate 4 ppm, after 5 days, read-out: activity (percentage of larval mortality)): 90%
O=C(NCC(F)(F)c1ccc(-c2ccc(Cl)nc2)cc1C(F)(F)F)c1ccccc1C(F)(F)F [Example 1-126]	100	100	–	90	–
COc1ccc(-c2ccc(C(F)(F)CNC(=O)c3ccccc3C(F)(F)F)c(C(F)(F)F)c2)cn1 [Example 1-127]	100	100	–	–	–
O=C(NCC(F)(F)c1ccc(-c2ccc(F)nc2)cc1C(F)(F)F)c1ccccc1C(F)(F)F [Example 1-128]	100	100	–	100	–
CC(F)(CNC(=O)c1cccnc1C(F)(F)F)c1ccc(-c2ccc(F)nc2)cc1Cl (centres unmarked) [Example 1-129]	–	–	–	100	–
CC(F)(CNC(=O)c1ccccc1C(F)(F)F)c1ccc(-c2ccc(F)nc2)cc1Cl (centres unmarked) [Example 1-130, N-{2-[2-chloro-4-(6-fluoropyridin-3-yl)phenyl]-2-fluoropropyl}-2-(trifluoromethyl) benzamide]	–	–	–	100	–
Cc1cc(-c2ccc(F)nc2)ccc1C(F)(F)CNC(=O)c1ccccc1C(F)(F)F [Example 1-136]	–	–	–	90	–
O=C(NCC(F)(F)c1ccc(-c2ccc(F)nc2)cc1C(F)(F)F)c1cccnc1C(F)(F)F [Example 1-140]	–	–	–	90	–
